Legend:
MET [1] = target: T1, MET (Homo sapiens, UniProt P08581, DEL964-1010); assay: MET degradation in H596 cells (exon 14 deleted MET); assay type: cell-based; details: 1 nM HGF, 24 hrs
T1 construct: In a non-small-cell lung cancer cell line H596, a functional MET protein is expressed without the 47 amino acids encoded by exon 14; endogenous in cells; host or cells: H596 (NSCLC / adenosquamous carcinoma)
Description: (§1) MET exon 14 mutations have been reported in many cancers (The Cancer Genome Atlas Research Network, 2014, Nature, 511(7511):543-550; Frampton et al., 2015, Cancer Discov. 5(8):850-859). MET exon 14 mutations confer reduced HGF-induced receptor degradation. Deletion of exon 14 (Leu964-Asp1010) removes the Tyr1003 site necessary for Cbl binding leading to a substantial decrease HGF-induced receptor degradation as previously reported (Kong-Beltram et al., 2006, Cancer Res. 66(1):283-289). […] In a non-small-cell lung cancer cell line H596, a functional MET protein is expressed without the 47 amino acids encoded by exon 14 (Kong-Beltram et al., 2006, Cancer Res. 66(1):283-289).

MET [2] = target: T2, MET (Homo sapiens, UniProt P08581); assay: HGF-induced MET degradation in A549 cells; assay type: cell-based; parameters: cell lines expressing wild-type MET such as A549 and U87MG cells; endogenous in cells; host or cells: A549; details: A549 cells (wild-type MET)
Description: as §1

MET [3] = target: T2, MET; assay: HGF-induced MET degradation in U87MG cells; assay type: cell-based; details: U87MG cells (wild-type MET)
Description: as §1

MET [4] = target: T2, MET; assay: MET ubiquitination in A549 cells (immunoprecipitation/immunoblot); assay type: cell-based; parameters: cell lines expressing wild-type MET such as A549 and U87MG cells; endogenous in cells; host or cells: A549; details: 1 nM, 15 min, FIG. 12B
Description: Whether the anti-MET antibodies promote MET ubiquitination and degradation was investigated next. […] Cell lysates were precipitated with anti-ubiquitin antibody conjugated agarose (Santa Cruz) followed by immunoblotting with anti-MET antibody (Cell Signaling Technology). […] Thus, these antibodies promote receptor degradation utilizing the ubiquitination mechanism instead of protease-mediated shedding. This is in contrast with membrane protease-mediated receptor shedding observed previously with antibodies such as DN30 (Schleter, 2010, J. Biol. Chem. 285(34):26335-26340).

[5] = test system: MET, AKT and MAPK phosphorylation; assay: Akt and MAPK phosphorylation analysis by western blot in A549 cells; assay type: cell-based, human; details: HGF treatment
Protocol: Western blots were generated from total protein separated on a 10% SDS-PAGE gel. Resolved protein was transferred to nitrocellulose (Bio-Rad), blocked for 1 h with 5% skim milk at 25° C., and then incubated with the indicated antibody overnight at 4° C. The anti-pAkt antibody, anti-pMAPK antibody (Cell Signaling cat. No. 9271 and Cell Signaling cat. No. 4370, respectively), and anti-1234/1235 MET XP antibody (Cell Signaling cat. No. 3077) were used at a concentration of 1 μg/mL in 5% skim milk. Secondary mouse and rabbit antibodies (GE Healthcare) were used at a 1:5000 dilution for 1 h at 25° C. SuperSignal® West Picto Chemiluminescent HRP Substrate (Thermo Scientific cat. No. 34078) was used as directed.

U87MG tumor cells = assay: U87MG orthotopic mouse model (bioluminescence); assay type: in vivo; details: 25 mg/kg; compared with control chimeric IgG1 anti-KLH antibody
Protocol: The ability of the anti-MET antibodies to inhibit tumor growth in vivo is assessed as described in Sections 6.2.1.3, 6.2.1.4, and 6.2.1.5. […] Treatment was performed biweekly, every three to four days, for seven weeks.

MET [6] = target: T2, MET; assay: MET shedding ELISA (sMET-ECD release) in A549 cells; assay type: cell-based; parameters: cell lines expressing wild-type MET such as A549 cells; endogenous in cells; host or cells: A549; details: 24 hrs, 1 nM of antibody, FIG. 12A

HGF: MET ligand used to stimulate cells
receptor degradation (MET [1]): 30% | receptor degradation (MET [2]): approximately 80% | receptor degradation (MET [3]): approximately 80% | MET receptor ubiquitination (MET [4]): induced potent receptor ubiquitination

C[C@@H](Oc1cc(-c2cnn(C3CCNCC3)c2)cnc1N)c1c(Cl)ccc(F)c1Cl [crizotinib]
MET protein levels, western blot [5]: not observed | activation of MET (phosphorylated MET), western blot [5]: inhibited activation of MET | activation of downstream signaling components Akt and MAPK (phosphorylation), western blot [5]: reduces the activation of downstream signaling components Akt and MAPK | tumor growth (bioluminescence) (U87MG tumor cells): resulted in similar tumor growth

CCCCCCCCCCCCCC(=O)O[C@@H]1[C@@H](C)[C@@]2(O)[C@@H](C=C(CO)C[C@]3(O)C(=O)C(C)=C[C@@H]23)[C@@H]2C(C)(C)[C@]12OC(C)=O [PMA, phorbol 12-myristate 13-acetate]
MET shedding (release of sMET-ECD into culture medium) (MET [6]): induced substantial MET shedding
